Experimental data as given in patent publication US20160185735A1, “FATTY ACID ANALOGS AND THEIR USE” (UNIVERSITY OF PITTSBURGH - OF THE COMMONWEALTH SYSTEM OF …, priority 2013, published 2016).
Values joined by “and” are separate entries in the source; they are usually repeats but may differ in a detail not shown here. Equal values may be shown once. Blank lines part the entries; values can stand above or below the compound they belong to.

Legend:
[1] = system: β-oxidation in heart tissue; test: Folch-type extraction of 18F signal in heart tissue (oxidized vs unoxidized analog); assay type: in vivo, mice (ICR strain)
Source text: FIGS. 9-10 are graphs showing the distribution of ^18F signal in heart tissue taken from fasted mice (ICR strain) administered the ^18F-labeled oleate analog (compound Va). Folch-type extraction was used to separate “Organic” (unoxidized analog) from “Pellets” and “Aqueous” (oxidized fatty acid metabolites).

[2] = Tissue biodistribution of 18F-labeled tracers postinjection; assay type: in vivo, mice (ICR strain); conditions: for background muscle uptake: 0.5 and 2 hours postinjection
Procedure: FIGS. 11 and 12 are graphs showing biodistribution of ^18F-labeled FTO (“FTO,” left bar, Compound I) and the ^18F-labeled oleate analog (“clicked FTO,” right bar, compound Va) at 0.5 hours (FIG. 11) and 2 hours (FIG. 12) postinjection into mice (ICR strain). Similar to ^18F-FTO, the ^18F-labeled oleate analog has low background muscle uptake at 0.5 and 2 hours postinjection.
FIG. 14 is a table showing tissue biodistribution of ^18F-labeled-Oleate analog (compound Va) in mice (ICR strain).

[3] = system: PCa cells; conditions: cited from earlier work
[4] = system: Ehrlich ascites tumor cells; conditions: injected directly into the peritoneal fluid; cited from earlier work
[5] = system: β-oxidation (myocardial uptake); test: Blockage of β-oxidation / myocardial uptake with etomoxir; assay type: in vivo, mice
Source text: FIG. 13 is a graph showing the blockage of β-oxidation of ^18F-labeled FTO (“FTO,” left bar, Compound I) and the ^18F-labeled oleate analog (“clicked FTO,” right bar, compound Va) with etomoxir.

[6] = system: PC3 xenografts; test: Small animal PET/CT imaging of tracer uptake in PC3 xenografts; assay type: in vivo, mice; conditions: 2 hours postinjection, listed as 18F-clicked-FTO
Procedure: Small animal PET/CT imaging was performed as previously described (Sprague et al., Clin. Cancer. Res. 2004, 10 (24), 8674-8682). Briefly, the ^18F-clicked palmitate or ^18F-clicked oleate analog (3.7 MBq) was injected via tail vein and the mouse was imaged at 2 hours postinjection. Static imaging was performed on an Inveon PET/CT scanner (Constantinescu et al., Phys. Med. Biol., 54, 2885-2899, 2009; Kemp et al., Phys. Med. Biol., 54, 2359-2376, 2009) with 10 min PET scanning followed by a 5 min CT. Inveon Research Workplace (IRW) from Siemens Healthcare Global was used for co-registration of PET/CT images and quantification of regions of interest (ROI). PET/CT images were reconstructed with maximum a posteriori (MAP), 3D ordered-subset expectation maximization (OSEM3D), 2D ordered-subset expectation maximization (OSEM2D), and filtered back projection (2DFBP). Standard uptake values (SUV) were generated by measuring ROI from PET/CT images and calculated with the formula: SUV=[nCi/ml]×[animal weight (g)]/injected dose [nCi]. FDG was injected intraperitoneally 36 hours pre-injection. 2-DG was injected intraperitoneally 4 hours pre-injection. […]

[7] = system: PC3 cells; test: Post-fix click fluorescence microscopy of alkyne fatty acid uptake; assay type: cell-based; conditions: fixed, permeated, stained with sulfo-Cy3-azide
Procedure: Cells were treated with Alkyn-4-Thia-Palmitate, Alkyn-Palmitate, or control. The cells were then fixed, and incubated with sulfo-Cy3 azide to detect the trapped fatty acid analog.
This example illustrates in vitro analysis of fatty acid metabolism using the disclosed compounds. Cells were incubated with a fatty acid analog including a terminal alkyne group, fixed, and then treated with sulfo-Cy3-azide. The sulfo-Cy3-azide undergoes a click chemistry reaction (a 1,3-dipolar cycloaddition) with the terminal […] of the fatty acid homolog in the fixed cells to form a triazole ring linked to the fatty acid analog. The Cy3 moiety is then detected by fluorescence microscopy.
• 1. Place approximately 500 PC3 cells on coverslip in 24 well plates. • 2. Starve the cell with 250 μL of glucose free media overnight. • 3. Replace the media before the experiment with fresh 250 μL of glucose free media. • 4. Add alkyne fatty acid to the selected wells with coverslip and 1% BSA 10 μL in the control well and incubate at 37° C. for 1 or 2 h. • 5. After respective time wash the cells with 500 μL of 1% BSA for 3×5 min to remove extra fatty acid. • 6. Fix the cells with 300 μL of 4% paraformaldehyde (PFA) for 15 min • 7. Wash the cells once with PBS. • 8. […] Mount the coverslip and analyze by fluorescence microscopy. […]

Compound: CCOC(=O)[C@@]1(CCCCCCOc2ccc(Cl)cc2)CO1 [Etomoxir, reference compound]
effect on extent of β-oxidation of the 18F-labeled oleate analog in heart tissue ([1]; fasted mice given compound Va): reduced the extent of the β-oxidation

background muscle uptake [2]: low
Compound: O=C(O)CCSCCCC/C=C\CCCCCCCC[18F] [FTO, [^18F]Fluoro-4-thia-oleic acid, reference compound]

Compound: [3H]C(CCCCCC)C([3H])CCCCCCCC(=O)O (centres unmarked) [^3H-palmitic acid]
uptake in PCa cells compared with 2-DG [3]: dominant uptake

Compound: O=C[C@H](O)[C@@H](O)[C@H](O)[C@H](O)CO [^14C-glucose]
incorporation into Ehrlich ascites tumor cells / cellular lipids [4]: 1%

myocardial uptake, blockage with etomoxir [5]: can be blocked with etomoxir
uptake in the tumor (SUV) ([6]; 2-DG and FDG treated mice, 3.7 MBq via tail vein): 0.21 and 0.22
uptake in the tumor (SUV) ([6]; control group not treated with 2-DG and FDG): 0.15 and 0.18
background muscle uptake [2]: low
in vivo defluorination relative to 18F-FTO ([2]; 0.5 hours postinjection): significantly less
in vivo defluorination relative to FTO ([2]; 2 hours postinjection): significantly inhibited
myocardial uptake relative to 18F-FTO ([2]; mice, postinjection): lower than the ^18F-FTO
Compound: O=C(O)CCSCCCC/C=C\CCCCCCCc1cn(CC[18F])nn1 [compound Va, (Z)-3-((13-(1-(2-[^18F]fluoroethyl)-1H-1,2,3-triazol-4-yl)tridec-5-en-1-yl)thio)propanoic acid]
oxidation of the analog in heart tissue over time ([1]; fasted mice, Organic (unoxidized) vs Pellets and Aqueous (oxidized metabolites)): more of the fatty acid analog was oxidized

Compound: ^14C-palmitate
incorporation into Ehrlich ascites tumor cells / cellular lipids [4]: 40-50%

Compound: alkyn-4-thia-palmitate
uptake by PCa cells [7]: avidly take up
